Columns and labels:
[1] = molecular target: RAC-beta serine/threonine-protein kinase (Homo sapiens) (UniProt P31751); assay: Inhibition of AKT2 (unknown origin) at 0.45 uM relative to control
[2] = molecular target: T1, Mitogen-activated protein kinase 12 (Homo sapiens) (UniProt P53778); assay: Inhibition of p38-gamma (unknown origin) at 0.19 uM relative to control
T1 sequence (whole entry): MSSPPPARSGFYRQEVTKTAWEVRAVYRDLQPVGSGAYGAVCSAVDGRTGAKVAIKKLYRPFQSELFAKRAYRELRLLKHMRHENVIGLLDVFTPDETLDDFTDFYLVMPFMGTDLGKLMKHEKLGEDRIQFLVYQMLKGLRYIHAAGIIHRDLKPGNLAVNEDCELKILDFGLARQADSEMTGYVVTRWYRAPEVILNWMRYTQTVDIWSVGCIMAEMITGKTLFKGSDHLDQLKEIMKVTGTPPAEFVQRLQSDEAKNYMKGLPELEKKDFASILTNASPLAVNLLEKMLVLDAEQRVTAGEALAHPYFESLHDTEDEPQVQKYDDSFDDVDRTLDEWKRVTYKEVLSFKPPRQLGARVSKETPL

[3] = molecular target: Serine/threonine-protein kinase Nek1 (Homo sapiens) (UniProt Q96PY6); assay: Inhibition of NEK1 (unknown origin) at 0.19 uM relative to control
Serine/threonine-protein kinase Nek1 (Homo sapiens), sequence (Q96PY6 whole entry): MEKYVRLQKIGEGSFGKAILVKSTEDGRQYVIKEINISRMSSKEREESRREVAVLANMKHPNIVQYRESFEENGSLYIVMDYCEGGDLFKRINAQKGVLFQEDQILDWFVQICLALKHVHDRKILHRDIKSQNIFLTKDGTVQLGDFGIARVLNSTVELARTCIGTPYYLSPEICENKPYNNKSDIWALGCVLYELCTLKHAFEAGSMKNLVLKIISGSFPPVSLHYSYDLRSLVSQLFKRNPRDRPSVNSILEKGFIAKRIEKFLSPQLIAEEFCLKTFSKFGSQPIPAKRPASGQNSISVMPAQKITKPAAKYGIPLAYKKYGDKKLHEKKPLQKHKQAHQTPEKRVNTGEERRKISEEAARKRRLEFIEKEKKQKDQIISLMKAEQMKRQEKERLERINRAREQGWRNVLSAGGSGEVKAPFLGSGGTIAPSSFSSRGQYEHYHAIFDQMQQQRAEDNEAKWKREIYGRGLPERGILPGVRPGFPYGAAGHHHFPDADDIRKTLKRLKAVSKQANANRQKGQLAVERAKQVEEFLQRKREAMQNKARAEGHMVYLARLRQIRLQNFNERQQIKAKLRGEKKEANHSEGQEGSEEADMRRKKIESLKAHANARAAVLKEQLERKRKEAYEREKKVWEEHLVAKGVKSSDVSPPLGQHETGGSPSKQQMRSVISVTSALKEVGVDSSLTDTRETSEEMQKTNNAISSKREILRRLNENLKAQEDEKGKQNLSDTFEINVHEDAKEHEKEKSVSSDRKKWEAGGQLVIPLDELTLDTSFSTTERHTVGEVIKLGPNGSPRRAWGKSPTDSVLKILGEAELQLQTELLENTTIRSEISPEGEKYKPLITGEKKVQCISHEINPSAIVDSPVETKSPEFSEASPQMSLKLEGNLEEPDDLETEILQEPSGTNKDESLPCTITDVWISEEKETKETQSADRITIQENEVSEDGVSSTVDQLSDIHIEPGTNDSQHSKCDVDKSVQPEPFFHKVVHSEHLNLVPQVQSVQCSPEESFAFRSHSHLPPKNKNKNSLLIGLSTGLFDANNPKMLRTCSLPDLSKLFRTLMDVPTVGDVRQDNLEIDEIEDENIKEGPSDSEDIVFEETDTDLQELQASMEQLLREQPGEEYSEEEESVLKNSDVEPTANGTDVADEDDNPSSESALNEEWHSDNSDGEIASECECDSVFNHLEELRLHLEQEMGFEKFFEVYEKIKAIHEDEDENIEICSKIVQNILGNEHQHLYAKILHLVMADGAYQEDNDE

[4] = molecular target: T2, MAP kinase-activated protein kinase 5 (Homo sapiens) (UniProt Q8IW41); assay: Inhibition of PRAK (unknown origin) at 0.19 uM relative to control
T2 sequence (whole entry): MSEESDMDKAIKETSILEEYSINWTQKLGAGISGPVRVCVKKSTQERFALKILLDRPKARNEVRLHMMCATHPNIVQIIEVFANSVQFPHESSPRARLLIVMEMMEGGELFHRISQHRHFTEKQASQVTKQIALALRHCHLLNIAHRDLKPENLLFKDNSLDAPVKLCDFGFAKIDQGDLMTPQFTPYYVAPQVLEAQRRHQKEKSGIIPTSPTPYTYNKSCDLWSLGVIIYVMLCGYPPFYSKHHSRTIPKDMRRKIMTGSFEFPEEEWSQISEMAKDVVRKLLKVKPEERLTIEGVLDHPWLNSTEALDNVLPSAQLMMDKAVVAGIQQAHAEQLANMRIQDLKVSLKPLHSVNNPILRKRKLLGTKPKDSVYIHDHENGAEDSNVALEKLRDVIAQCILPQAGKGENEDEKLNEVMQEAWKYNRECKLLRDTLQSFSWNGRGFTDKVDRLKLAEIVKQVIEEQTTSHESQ

[5] = molecular target: Tyrosine-protein kinase ABL1 (Homo sapiens) (UniProt P00519); assay: Inhibition of ABL (unknown origin) at 0.19 uM relative to control
[6] = molecular target: STE20-like serine/threonine-protein kinase (Homo sapiens) (UniProt Q9H2G2); assay: Inhibition of SLK (unknown origin) at 0.19 uM relative to control
STE20-like serine/threonine-protein kinase (Homo sapiens), sequence (Q9H2G2 whole entry, looked up): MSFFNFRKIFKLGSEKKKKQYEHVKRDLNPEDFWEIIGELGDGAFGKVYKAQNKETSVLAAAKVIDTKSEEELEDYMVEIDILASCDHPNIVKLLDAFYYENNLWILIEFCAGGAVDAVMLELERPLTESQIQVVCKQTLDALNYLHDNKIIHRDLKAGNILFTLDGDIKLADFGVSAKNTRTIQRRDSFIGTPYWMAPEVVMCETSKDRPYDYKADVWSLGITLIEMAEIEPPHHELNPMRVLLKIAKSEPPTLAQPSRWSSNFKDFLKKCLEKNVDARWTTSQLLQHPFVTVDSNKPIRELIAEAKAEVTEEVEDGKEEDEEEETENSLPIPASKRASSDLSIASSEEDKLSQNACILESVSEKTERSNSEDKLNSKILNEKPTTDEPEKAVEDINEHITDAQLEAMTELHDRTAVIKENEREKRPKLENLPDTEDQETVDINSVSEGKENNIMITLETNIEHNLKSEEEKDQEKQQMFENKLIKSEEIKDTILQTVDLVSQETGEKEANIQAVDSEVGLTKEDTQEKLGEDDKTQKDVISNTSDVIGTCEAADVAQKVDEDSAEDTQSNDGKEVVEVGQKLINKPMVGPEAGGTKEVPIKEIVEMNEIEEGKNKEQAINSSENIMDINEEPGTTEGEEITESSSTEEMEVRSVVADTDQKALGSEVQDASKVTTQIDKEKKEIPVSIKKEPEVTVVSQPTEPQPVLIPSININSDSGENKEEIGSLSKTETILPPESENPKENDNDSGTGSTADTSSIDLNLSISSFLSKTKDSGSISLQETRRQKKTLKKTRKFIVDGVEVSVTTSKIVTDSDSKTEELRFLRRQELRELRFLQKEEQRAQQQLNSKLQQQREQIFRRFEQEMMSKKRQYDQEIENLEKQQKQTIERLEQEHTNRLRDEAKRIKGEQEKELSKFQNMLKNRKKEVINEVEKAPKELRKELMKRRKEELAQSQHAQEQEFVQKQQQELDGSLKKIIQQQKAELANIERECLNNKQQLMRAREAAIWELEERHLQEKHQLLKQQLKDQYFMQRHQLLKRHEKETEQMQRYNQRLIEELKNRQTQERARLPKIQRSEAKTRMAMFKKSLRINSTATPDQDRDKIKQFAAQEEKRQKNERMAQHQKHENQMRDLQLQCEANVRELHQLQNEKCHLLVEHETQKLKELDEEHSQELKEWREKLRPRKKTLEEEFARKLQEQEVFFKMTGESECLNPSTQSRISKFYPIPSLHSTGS

[7] = molecular target: Cyclin-dependent kinase 5/CDK5 activator 1 (Homo sapiens) (UniProt Q00535+Q15078); assay: Inhibition of CDK5/p25 (unknown origin) at 0.19 uM relative to control; type: protein-complex assay
[8] = system: Fibroblast growth factor receptor 2 (Homo sapiens), P21802 [N549H]; assay: Inhibition of FGFR2 N549H mutant (unknown origin) at 0.19 uM relative to control
[9] = molecular target: Tyrosine-protein kinase ITK/TSK (Homo sapiens) (UniProt Q08881); assay: Inhibition of ITK (unknown origin) at 0.19 uM relative to control
[10] = molecular target: Ephrin type-B receptor 3 (Homo sapiens) (UniProt P54753); assay: Inhibition of EPHB3 (unknown origin) at 0.19 uM relative to control
[11] = molecular target: Cyclin-dependent kinase 1/cyclin B1 (Homo sapiens) (UniProt P06493+P14635); assay: Inhibition of CDK1/Cyclin B1 (unknown origin) at 0.19 uM relative to control; type: protein-complex assay
[12] = molecular target: Dual specificity tyrosine-phosphorylation-regulated kinase 2 (Homo sapiens) (UniProt Q92630); assay: Inhibition of DYRK2 (unknown origin) at 0.19 uM relative to control
[13] = molecular target: Casein kinase I isoform gamma-2 (Homo sapiens) (UniProt P78368); assay: Inhibition of CK1-gamma2 (unknown origin) at 0.164 uM relative to control
[14] = molecular target: Serine/threonine-protein kinase PAK 5 (Homo sapiens) (UniProt Q9P286); assay: Inhibition of PAK5/PAK7 (unknown origin) at 0.164 uM relative to control
[15] = molecular target: Ribosomal protein S6 kinase alpha-6 (Homo sapiens) (UniProt Q9UK32); assay: Inhibition of RSK4 (unknown origin) at 0.164 uM relative to control
[16] = molecular target: Discoidin domain-containing receptor 2 (Homo sapiens) (UniProt Q16832); assay: Inhibition of DDR2 (unknown origin) at 0.164 uM relative to control
Discoidin domain-containing receptor 2 (Homo sapiens), sequence (Q16832 whole entry, the tested form may be a part): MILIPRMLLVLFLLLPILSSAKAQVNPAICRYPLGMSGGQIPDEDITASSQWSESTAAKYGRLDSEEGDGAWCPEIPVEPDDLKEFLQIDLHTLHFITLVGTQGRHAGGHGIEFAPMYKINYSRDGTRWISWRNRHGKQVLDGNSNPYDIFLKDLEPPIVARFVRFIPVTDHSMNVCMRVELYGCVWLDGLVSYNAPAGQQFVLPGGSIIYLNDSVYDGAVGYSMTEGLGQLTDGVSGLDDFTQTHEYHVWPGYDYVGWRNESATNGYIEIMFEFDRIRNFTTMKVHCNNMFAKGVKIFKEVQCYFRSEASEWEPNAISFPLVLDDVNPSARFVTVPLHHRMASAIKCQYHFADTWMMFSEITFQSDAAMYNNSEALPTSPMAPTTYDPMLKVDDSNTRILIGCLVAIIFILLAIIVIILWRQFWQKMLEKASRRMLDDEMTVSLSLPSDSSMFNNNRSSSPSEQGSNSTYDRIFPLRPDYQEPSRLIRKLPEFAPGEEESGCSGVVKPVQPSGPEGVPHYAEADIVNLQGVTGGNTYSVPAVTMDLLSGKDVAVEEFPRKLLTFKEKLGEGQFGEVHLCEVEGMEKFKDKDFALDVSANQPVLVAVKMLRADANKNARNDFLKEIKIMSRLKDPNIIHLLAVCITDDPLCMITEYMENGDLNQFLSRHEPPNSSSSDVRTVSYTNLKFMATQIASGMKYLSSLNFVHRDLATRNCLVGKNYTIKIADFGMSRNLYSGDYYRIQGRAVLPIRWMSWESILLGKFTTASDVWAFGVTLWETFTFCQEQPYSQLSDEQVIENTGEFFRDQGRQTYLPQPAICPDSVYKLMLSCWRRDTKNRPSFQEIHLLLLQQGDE

[17] = molecular target: CDK6/cyclin D3 (Homo sapiens) (UniProt P30281+Q00534); assay: Inhibition of CDK6/CyclinD3 (unknown origin) at 0.164 uM relative to control; type: protein-complex assay
[18] = molecular target: NT-3 growth factor receptor (Homo sapiens) (UniProt Q16288); assay: Inhibition of TRKC (unknown origin) at 0.164 uM relative to control
[19] = molecular target: Receptor-type tyrosine-protein kinase FLT3 (Homo sapiens) (UniProt P36888); assay: Inhibition of FLT3 (unknown origin) at 0.164 uM relative to control
[20] = molecular target: ALK tyrosine kinase receptor (Homo sapiens) (UniProt Q9UM73); assay: Inhibition of ALK (unknown origin) at 0.164 uM relative to control
ALK tyrosine kinase receptor (Homo sapiens), sequence (Q9UM73 19-1620 limits assumed): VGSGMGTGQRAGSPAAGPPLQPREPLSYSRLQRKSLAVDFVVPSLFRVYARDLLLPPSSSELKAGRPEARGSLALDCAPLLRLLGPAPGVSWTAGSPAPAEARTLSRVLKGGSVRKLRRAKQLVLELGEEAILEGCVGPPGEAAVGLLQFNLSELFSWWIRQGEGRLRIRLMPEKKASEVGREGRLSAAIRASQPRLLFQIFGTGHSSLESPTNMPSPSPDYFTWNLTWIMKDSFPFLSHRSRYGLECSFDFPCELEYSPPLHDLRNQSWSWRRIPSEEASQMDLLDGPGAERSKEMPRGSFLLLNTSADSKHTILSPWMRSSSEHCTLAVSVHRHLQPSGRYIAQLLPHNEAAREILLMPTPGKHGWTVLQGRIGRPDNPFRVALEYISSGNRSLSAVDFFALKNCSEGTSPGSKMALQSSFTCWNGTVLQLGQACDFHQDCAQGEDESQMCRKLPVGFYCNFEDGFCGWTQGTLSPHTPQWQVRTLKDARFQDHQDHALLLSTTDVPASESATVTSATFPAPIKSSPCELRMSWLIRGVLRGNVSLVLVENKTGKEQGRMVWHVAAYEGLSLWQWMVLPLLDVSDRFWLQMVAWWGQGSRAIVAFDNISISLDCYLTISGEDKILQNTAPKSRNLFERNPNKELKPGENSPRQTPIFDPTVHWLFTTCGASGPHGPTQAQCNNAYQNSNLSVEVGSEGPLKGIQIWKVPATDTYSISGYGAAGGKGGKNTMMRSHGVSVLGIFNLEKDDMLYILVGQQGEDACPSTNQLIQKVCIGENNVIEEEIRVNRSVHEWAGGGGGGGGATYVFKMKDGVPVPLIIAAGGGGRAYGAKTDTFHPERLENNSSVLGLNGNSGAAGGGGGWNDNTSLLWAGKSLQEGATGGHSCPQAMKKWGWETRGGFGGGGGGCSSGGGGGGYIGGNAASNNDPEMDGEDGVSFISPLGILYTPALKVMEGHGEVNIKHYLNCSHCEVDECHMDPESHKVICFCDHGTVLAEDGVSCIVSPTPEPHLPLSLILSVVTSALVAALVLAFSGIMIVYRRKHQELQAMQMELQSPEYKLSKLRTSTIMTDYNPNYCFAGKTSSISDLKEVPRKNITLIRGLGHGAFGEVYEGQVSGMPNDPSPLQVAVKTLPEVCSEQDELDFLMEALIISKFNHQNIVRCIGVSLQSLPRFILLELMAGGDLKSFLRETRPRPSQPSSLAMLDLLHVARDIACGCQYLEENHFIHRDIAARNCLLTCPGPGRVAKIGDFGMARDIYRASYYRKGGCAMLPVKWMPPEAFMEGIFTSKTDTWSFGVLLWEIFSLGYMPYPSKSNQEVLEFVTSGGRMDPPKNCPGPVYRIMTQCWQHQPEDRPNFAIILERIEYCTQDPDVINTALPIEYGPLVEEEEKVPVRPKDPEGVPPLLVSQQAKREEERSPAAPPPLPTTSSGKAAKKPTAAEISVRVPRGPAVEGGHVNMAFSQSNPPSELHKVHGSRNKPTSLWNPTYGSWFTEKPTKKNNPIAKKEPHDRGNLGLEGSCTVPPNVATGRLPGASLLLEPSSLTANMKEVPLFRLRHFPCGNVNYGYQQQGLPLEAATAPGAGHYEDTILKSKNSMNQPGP

[21] = molecular target: Serine/threonine-protein kinase pim-3 (Homo sapiens) (UniProt Q86V86); assay: Inhibition of PIM3 (unknown origin) at 0.164 uM relative to control
[22] = molecular target: Calcium/calmodulin-dependent protein kinase type II subunit beta (Homo sapiens) (UniProt Q13554); assay: Inhibition of CaMK2-beta (unknown origin) at 0.164 uM relative to control
[23] = system: Hepatocyte growth factor receptor (Homo sapiens), P08581 [M1250T]; assay: Inhibition of MET M1250T mutant (unknown origin) at 0.164 uM relative to control
[24] = system: Tyrosine-protein kinase ABL1 (Homo sapiens), P00519 [Y253F]; assay: Inhibition of ABL1 Y253F mutant (unknown origin) at 0.164 uM relative to control
[25] = molecular target: Proto-oncogene tyrosine-protein kinase ROS (Homo sapiens) (UniProt P08922); assay: Inhibition of ROS (unknown origin) at 0.164 uM relative to control
[26] = molecular target: PAS domain-containing serine/threonine-protein kinase (Homo sapiens) (UniProt Q96RG2); assay: Inhibition of PASK (unknown origin) at 0.164 uM relative to control

Cc1n[nH]c(C)c1-c1ccc2c(NC(=O)c3ccc(N4CCN(C)CC4)cc3)n[nH]c2c1
inhibition [1]: -2%

Cc1[nH]nc(C2CC2)c1-c1ccc2c(-c3ccc(N4CCN(C)CC4)nc3)n[nH]c2c1
inhibition [2]: -3% | inhibition [3]: 1.3% | inhibition [4]: 1.3% | inhibition [5]: 83.7% | inhibition [6]: 29.7% | inhibition [7]: -4% | inhibition [8]: 19.7% | inhibition [9]: 24.7% | inhibition [10]: 1% | inhibition [11]: 2.3% | inhibition [12]: -0.7%

COC(=O)Nc1cc(-c2c(C3CC3)n[nH]c2C)cc2[nH]ncc12
inhibition [13]: 2.3% | inhibition [14]: 5% | inhibition [15]: 13.3% | inhibition [16]: 1.7% | inhibition [17]: 2.7% | inhibition [18]: 7.3% | inhibition [19]: 5% | inhibition [20]: 4.3% | inhibition [21]: -2.3% | inhibition [22]: 28% | inhibition [23]: -0.3% | inhibition [24]: 6.7% | inhibition [25]: 4% | inhibition [26]: -3%

From ChEMBL document CHEMBL4118098, “Discovery of DS28120313 as a potent orally active hepcidin production inhibitor: Design and optimization of novel 4,6-disubstituted indazole derivatives” (Bioorg Med Chem Lett, 2017)
